In publication PMC8164609 (Environmental Science and Pollution Research International, 2021):
Where two headings read alike, the source gives them in different places.

Assays:
MCF-7 cells = assay: LDH cytotoxicity test; settings: 24 h, up to 10^−4 M
Description: Cytotoxicity was assessed by lactate dehydrogenase (LDH) release. For LDH measurement, Pierce LDH Cytotoxicity Assay Kit (Thermo Scientific, Rockford, USA) was used. MCF-7 cells were seeded at 2.8×10^5 in a transparent 96-well plate, and corner cells of the plate were filled with PBS to prevent the edge effect. SF medium containing DMEM without phenol red, 1% charcoal-stripped FBS, and 4 mM L-glutamine were used for this assay. Plates were incubated for 24 h, and then the cells were treated with test compounds at concentrations ranging from 10^−14 to 10^−4 M or vehicle for another 24 h. On day 3, culture supernatant was collected in a separate 96-well plate, and the assay was continued according to the manufacturer’s instructions. Final absorbance was measured with the microplate reader at 490 and 680 nm. […] Vehicle control was 0.1% EtOH or DMSO. All the exposures were in triplicate, and the experiment was carried out twice.

human ERα = target: T1, human ERα (Homo sapiens, UniProt P03372); assay: Yeast bioluminescent assay, S. cerevisiae BMAEREluc/ERα (ERE-luc reporter); type: cell-based; settings: S. cerevisiae BMAEREluc/ERα, about 2.5 h incubation, 5% EtOH vehicle; read-out: EC50 (estrogenic potency, luminescence)
T1 construct: expressed in transfected cells; host or cells: Saccharomyces cerevisiae BMAEREluc/ERα (recombinant yeast, gift of Dr. Johanna Rajasärkkä, University of Helsinki)
T1 sequence (P03372 1-595): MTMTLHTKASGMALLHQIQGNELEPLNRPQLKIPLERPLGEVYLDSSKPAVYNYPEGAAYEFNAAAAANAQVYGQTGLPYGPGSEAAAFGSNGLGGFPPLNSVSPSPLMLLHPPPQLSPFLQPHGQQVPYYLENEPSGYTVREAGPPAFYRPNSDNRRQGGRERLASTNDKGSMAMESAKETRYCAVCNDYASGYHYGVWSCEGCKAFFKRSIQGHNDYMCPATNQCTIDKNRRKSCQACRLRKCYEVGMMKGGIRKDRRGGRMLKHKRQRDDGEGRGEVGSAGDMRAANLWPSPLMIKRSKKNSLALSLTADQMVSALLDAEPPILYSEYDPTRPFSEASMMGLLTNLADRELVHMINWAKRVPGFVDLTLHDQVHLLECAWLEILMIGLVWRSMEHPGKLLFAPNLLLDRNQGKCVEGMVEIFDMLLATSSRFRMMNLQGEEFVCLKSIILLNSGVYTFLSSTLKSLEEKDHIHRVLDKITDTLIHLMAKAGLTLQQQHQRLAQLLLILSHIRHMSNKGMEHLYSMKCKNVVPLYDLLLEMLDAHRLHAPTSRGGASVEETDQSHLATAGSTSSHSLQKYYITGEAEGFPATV
Description: Yeast bioluminescent assay was performed as previously described (Omoruyi and Pohjanvirta [2018]). Two recombinant yeasts, Saccharomyces cerevisiae BMAEREluc/ERα and Saccharomyces cerevisiae BMA64/luc, were kindly provided by Dr. Johanna Rajasärkkä, Department of Food and Environmental Sciences, Faculty of Agriculture and Forestry, University of Helsinki. In the BMAEREluc/ERα, human ERα is expressed. After estrogen-like chemicals bind to ERα, the dimerized receptor binds to a specific DNA sequence called estrogen response element (ERE), in the promotor region of the luc reporter gene, inducing its expression. In BMA64/luc, the luciferase is expressed constitutively, and this strain can be used for the evaluation of cytotoxicity of test compounds. […]
Next, 90 μL of cultured yeasts containing 1:20 luciferin solution (0.042 g luciferin dissolved in 9.75 mL of 0.2 M trisodium citrate, and 5.525 mL of 0.2 M citrate, pH 5) was pipetted into every well of a white 96-well flat-bottom plate, and 10 μL of test compounds in a defined concentration range (diluted in 5% EtOH) were added. […] The luminescence measurement was performed with Luminoskan Ascent microplate luminometer (Thermo Labsystems) using the recommended settings as follows: 1000 ms integration time, single measurement mode, shaking at 60 rpm for 5 s prior to measurement. […]

mice = test system: mice; parameters: method as in Poul et al. [2009]; settings: 20, 200 or 1000 mg/kg twice, 24-h interval, oral gavage; ref Poul et al. [2009]; cited from earlier work
S. cerevisiae BMA64/luc = settings: values higher than 2 are considered toxic
Description: Yeast bioluminescent assay was performed as previously described (Omoruyi and Pohjanvirta [2018]). Two recombinant yeasts, Saccharomyces cerevisiae BMAEREluc/ERα and Saccharomyces cerevisiae BMA64/luc, were kindly provided by Dr. Johanna Rajasärkkä, Department of Food and Environmental Sciences, Faculty of Agriculture and Forestry, University of Helsinki. In the BMAEREluc/ERα, human ERα is expressed. After estrogen-like chemicals bind to ERα, the dimerized receptor binds to a specific DNA sequence called estrogen response element (ERE), in the promotor region of the luc reporter gene, inducing its expression. In BMA64/luc, the luciferase is expressed constitutively, and this strain can be used for the evaluation of cytotoxicity of test compounds.
Both strains were revived from glycerol stock solution on agar and broth forms of synthetic complete medium supplemented with the required amino acids. After the absence of contamination was confirmed by observing single colonies’ morphology on agar plate, approximately 10 μL of cultured yeasts in broth was transferred to 4 mL of synthetic defined (SD) medium supplemented with the required amino acids. The culture was incubated at 30°C on a shaker incubator (200 rpm). After 24-h incubation, the culture was diluted with SD broth to reach the optimal density (OD600) of 0.4 CFU/mL. Subsequently, the culture was incubated in the same incubation condition until the OD600 reached 0.6–0.7 CFU/mL.
Next, 90 μL of cultured yeasts containing 1:20 luciferin solution (0.042 g luciferin dissolved in 9.75 mL of 0.2 M trisodium citrate, and 5.525 mL of 0.2 M citrate, pH 5) was pipetted into every well of a white 96-well flat-bottom plate, and 10 μL of test compounds in a defined concentration range (diluted in 5% EtOH) were added. The plate was incubated at 30°C for approximately 2.5 h, and was then shaken briefly. The luminescence measurement was performed with Luminoskan Ascent microplate luminometer (Thermo Labsystems) using the recommended settings as follows: 1000 ms integration time, single measurement mode, shaking at 60 rpm for 5 s prior to measurement.
Each concentration of test compounds and controls in the assay was tested in triplicate, and the experiment was performed twice.
* The Correction Factor is the luminescence of the strain BMA64/luc with blank solvent divided by the luminescence of the control strain with the sample. Values higher than 2 are considered toxic (Leskinen et al. 2005).
* The Correction Factor is the luminescence of the strain BMA64/luc with blank solvent divided by the luminescence of the control strain with the sample. Values higher than 2 are considered toxic (Leskinen et al. 2005). […] Each experiment was performed in triplicate.

estrogen receptor = target: estrogen receptor; parameters: method as in Axon et al. [2012]; settings: reporter gene construct in human ERα-positive MCF-7 cells; ref Axon et al. [2012]; read-out: EC50 concentration for estrogen receptor activation; cited from earlier work
[1] = test system: estrogen signaling cascade; parameters: method as in Datta and Lundin-Schiller [2008]; Axon et al. [2012]; settings: ref Datta and Lundin-Schiller [2008]; Axon et al. [2012]; cited from earlier work
[2] = Estimated human serum concentration from dietary exposure; settings: 7.3 mg/kg body weight/day as bolus, 2% absorbed, even distribution, maximum reduced by 50%
Description: Tartrazine has been classified as a xenoestrogen that can bind to ERα in the MCF-7 cell line (Axon et al. [2012]). […] This raises the question whether tartrazine could create any estrogenic effect in humans at its prevailing serum concentrations. Based on the data published by EFSA, the 95th or 97.5th percentile exposure levels for human is 7.3 mg/kg body weight/day (EFSA [2009]).

O=C([O-])C1=NN(c2ccc(S(=O)(=O)[O-])cc2)C(=O)C1N=Nc1ccc(S(=O)(=O)[O-])cc1.[Na+].[Na+].[Na+] (stereo not drawn) [tartrazine]
maximum level of cytotoxicity (LDH release) (MCF-7 cells): less than 2.5% | EC50 (human ERα): 0.0001 µM | mutagenic or cytotoxic effects in mice (mice): did not elicit mutagenic or cytotoxic effects | Correction Factor (S. cerevisiae BMA64/luc; 5% DMSO, 10^−4 M): 3.05±0.70 | Correction Factor (S. cerevisiae BMA64/luc; 5% DMSO, 10^−6 M): 2.77±0.44 | Correction Factor (S. cerevisiae BMA64/luc; 5% DMSO, 10^−8 M): 2.05±0.32 | Correction Factor (S. cerevisiae BMA64/luc; 5% DMSO, 10^−10 M): 2.60±0.54 | Correction Factor (S. cerevisiae BMA64/luc; 5% DMSO, 10^−12 M): 3.09±0.57 | Correction Factor (S. cerevisiae BMA64/luc; 5% DMSO, 10^−14 M): 3.43±0.66 | Correction Factor (S. cerevisiae BMA64/luc; 5% ethanol, 10^−4 M): 0.99±0.08 | Correction Factor (S. cerevisiae BMA64/luc; 5% ethanol, 10^−6 M): 0.94±0.12 | Correction Factor (S. cerevisiae BMA64/luc; 5% ethanol, 10^−8 M): 0.95±0.09 | Correction Factor (S. cerevisiae BMA64/luc; 5% ethanol, 10^−10 M): 1.36±0.30 | Correction Factor (S. cerevisiae BMA64/luc; 5% ethanol, 10^−12 M): 1.10±0.26 | Correction Factor (S. cerevisiae BMA64/luc; 5% ethanol, 10^−14 M): 1.14±0.23 | EC50 (estrogen receptor): 0.16 µM | concentration range of estrogenic effect in vitro [1]: 1 to 10000 pM | estimated serum concentration [2]: 137 nM
